What all share (experiment): inhibition of tumour cell growth, NCI panel, 48 h
Experiment [1] deals with SW-620 colon.
Experiment [2] has as its system ACHN renal.
Experiment [3] has as its system CAKI-1 renal.
For experiment [4], the system named is SN12C renal.
The test system of experiment [5] is SF-539 CNS.
In experiment [6] the test system is OVCAR-4 ovarian.
In experiment [7] the test system is RPMI-8226 leukemia.
In experiment [8] the test system is SR leukemia.

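Dose response: 5 concentrations. Exposure: 48 h. Format: 96-well plates. Endpoint: linear interpolation; highest concentration if not reached. GI50 marks 50% less growth. TGI is the concentration that stops growth completely.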

The source of these data is PubChem BioAssay (NCI).

As to `N#Cc1cc([N+](=O)[O-])ccc1NC(=O)C(=O)Nc1n[nH]c(N)n1`, the TGI in experiment [1], in experiment [2], in experiment [3], in experiment [4], in experiment [5] and in experiment [6] was above 100 µM each time. In addition, in experiment [7], the TGI is above 100 µM.
Turning to `CC(=O)CNC(=O)OC(C)(C)C`, the TGI in experiment [1], in experiment [2], in experiment [3], in experiment [8], in experiment [4] and in experiment [5] was above 100 µM throughout. In addition, in experiment [6], the TGI is above 100 µM.
Turning to `C/C(CC(=O)Nc1ccc(C)cc1C)=N/N=C(N)N`, the TGI in experiment [1], in experiment [2], in experiment [5] and in experiment [7] was above 100 µM in each case.
With `COC12C=C(C)C(CC1)CC2C(=O)O` (centres undefined), the TGI in experiment [1], in experiment [2], in experiment [3], in experiment [8], in experiment [4] and in experiment [5] was above 100 µM in each case. The TGI in experiment [6] and in experiment [7] was above 100 µM each time.
On to `O=C(/N=N/C(=O)OCc1ccccc1)OCc1ccccc1`, for which the TGI in experiment [1], in experiment [2], in experiment [3], in experiment [4], in experiment [5] and in experiment [6] was above 100 µM each time. The same compound registered a TGI in experiment [7] above 100 µM.
Take `COc1ccc(/C=C/CN(C)CCc2ccccc2)cc1OC`: the TGI in experiment [1], in experiment [2], in experiment [4] and in experiment [7] was above 100 µM in each case.
Turning to `COc1ccc(C2=CC3CCC2C3)cc1` (centres undefined), the TGI in experiment [1], in experiment [2], in experiment [3], in experiment [8], in experiment [4] and in experiment [5] was above 100 µM throughout. The TGI in experiment [6] and in experiment [7] was above 100 µM in each case.
With `CC(C)(C)C1C=C(Sc2ccccc2)C(=O)O1` (centres undefined), the TGI in experiment [1], in experiment [2], in experiment [3], in experiment [4], in experiment [5] and in experiment [6] was above 100 µM each time. The compound also came in with a TGI in experiment [7] above 100 µM.
For the compound `[Cl-].[Dy+3].[O-]/N=C(\c1ccccc1)c1ccccn1.[O-]/N=C(\c1ccccc1)c1ccccn1.[O-]/N=C(\c1ccccc1)c1ccccn1`, the GI50 was 41.8 µM in experiment [1]; 34.6 µM in experiment [2]; 31 µM in experiment [3]; 46.4 µM in experiment [4]; 25.5 µM in experiment [5]; 44.3 µM in experiment [6]. For the same compound, in experiment [7], the GI50 is 45.1 µM. Moreover, the TGI in experiment [1] was above 100 µM; in experiment [2] it was above 100 µM; in experiment [3] it was above 100 µM; in experiment [4], above 100 µM; in experiment [5], 64.3 µM; in experiment [6] it was above 100 µM. Besides, in experiment [7], the TGI is above 100 µM.
Consider `CCC[CH2][Sn]1([CH2]CCC)[O]Cc2nc(C)ccc2[O]1`, for which the GI50 in experiment [1] is 2.81 µM; in experiment [2] it was 12 µM; in experiment [3] it was 2.36 µM; in experiment [8], 2950 nM; in experiment [4], 11.3 µM; in experiment [5], 12.1 µM. The GI50 is 3.95 µM in experiment [6] and 1.99 µM in experiment [7]. The TGI in experiment [1] was 12.1 µM; in experiment [2] it was 24.4 µM; in experiment [3] it was 9.03 µM; in experiment [8], 12.7 µM; in experiment [4], 23.3 µM; in experiment [5], 24.5 µM. The TGI in experiment [6] turned out to be 17.6 µM; in experiment [7] it was 6.87 µM.
On to `CC1=NN(C(=O)Nc2ccccc2)C(=O)C2CCC(=O)N12` (centres undefined), for which the TGI in experiment [1], in experiment [2], in experiment [3], in experiment [8], in experiment [4] and in experiment [5] was above 100 µM each time. For the same compound, the TGI in experiment [6] and in experiment [7] was above 100 µM each time.
As to `COC(=O)/C(=N/NC(=O)C[N+](C)(C)C)C(C(=O)OC)C(=O)C(=O)Nc1ccc(F)cc1` (centres undefined), the TGI in experiment [1], in experiment [2], in experiment [3], in experiment [8], in experiment [4] and in experiment [5] was above 100 µM each time. The TGI in experiment [6] and in experiment [7] was above 100 µM throughout.
As to `O=c1/c(=C/c2ccco2)sc2nc3ccccc3n12`, the GI50 in experiment [1], in experiment [2], in experiment [3], in experiment [5], in experiment [6] and in experiment [7] was above 100 µM each time. Besides, the TGI in experiment [1] is above 100 µM; in experiment [2] it was above 100 µM; in experiment [3], above 100 µM; in experiment [8] it was above 10 µM; in experiment [4], above 10 µM; in experiment [5], above 100 µM. For the same compound, the TGI in experiment [6] and in experiment [7] was above 100 µM in each case.
On to `O=C1CCC(=O)N2CCCCN12`, for which the TGI in experiment [1], in experiment [2], in experiment [3], in experiment [4], in experiment [5] and in experiment [6] was above 100 µM in each case.
As to `NC(=O)C(=O)N/N=C(\CC1(O)C(=O)Nc2ccccc21)c1ccc2ccccc2c1` (centres undefined), the TGI is above 100 µM in experiment [1]; above 100 µM in experiment [2]; above 100 µM in experiment [3]; 44.5 µM in experiment [8]; 60.5 µM in experiment [4]; above 100 µM in experiment [5]. The figures for the TGI in experiment [6] and in experiment [7] were above 100 µM and 86.3 µM, respectively.
`Cc1cccc(C)c1NC(=O)C(=O)C1C(=O)NC(=O)NC1=O`: the TGI in experiment [1], in experiment [2], in experiment [3], in experiment [8], in experiment [4] and in experiment [5] was above 100 µM throughout. Further, the TGI in experiment [6] and in experiment [7] was above 100 µM in each case.
